Consider two compounds from patent publication US20090110708A1, “ANIMATE TISSUE ANTISEPSIS” (priority 2007, published 2009).

The experiment concerns Staphylococcus aureus. Put plainly: Kill of Staphylococcus aureus inoculated onto inanimate porcine intestine by forced evaporation of the applied solution. The format is cell-based.

For the compound `OO` [H2O2, hydrogen peroxide], the “death of the organisms (kill by enhanced evaporation)” value (initial H2O2 concentrations 4%-10% (vol.), 16 mg/cm^2 on tissue, blown air 50° C., 5.0 m/sec) is “significantly killed”. The log reduction runs as follows: (no alcohol, 3 minute dry time) 2.21; (no alcohol, 3.5 minute dry time) 2.68; (no alcohol, 4 minute dry time) 1.79.

In the case of “ethyl alcohol [10% alcohol (EtOH), reference compound]”, the log reduction entry (no peroxide, 10% alcohol (EtOH)) is “no measurable log reduction”.
